Experiments:
E7-specific CD8 cells = conditions: single dose HSp E7+poly IC followed by three consecutive daily doses of Poly IC alone; cited from earlier work
[1] = tested on: E749-57-specific CD8 T cells; experiment: ex vivo IFN-γ ELISPOT after E7 vaccination followed by ivag immunostimulant; assay type: in vivo, C57BL/6 mice; conditions: sc E71-98+CpG and HLT day 1; ivag immunostimulant day 6; analysis day 9
[2] = tested on: E749-57-specific CD8 T cells; experiment: ex vivo IFN-γ ELISPOT after sc or i.n. immunization with E71-98 + adjuvants; assay type: in vivo, C57BL/6 mice; conditions: single 50 μg sc or i.n. dose, no adjuvant; 7 days after immunization
[3] = target: HPV16 E749-57 peptide presented by H-2D^b (human papillomavirus type 16; mouse (C57BL/6)) (UniProt P01899)
[4] = target: HPV16 E749-57 peptide presented by H-2D^b (human papillomavirus type 16; mouse (C57BL/6)) (UniProt P01899); remark: listed apart in the source

In the case of “polyriboinosinic:polyribocytidylic acid [pI:C]”, the “numbers of E7-specific CD8 cells vs single dose of HspE7+poly IC” value (E7-specific CD8 cells) is listed as “did not elicit a significant increase” and the “E7-specific CD8 T cell responses in CV tissue vs ivag PBS” value [1] is listed as “strongly enhanced”.
With “E71-98: complete synthetic E7 polypeptide (residues 1-98) of human papillomavirus type 16” the “E7-specific CD8 T cell responses in PBMC” value [2] was “did not induce detectable E7-specific CD8 T cell responses”.
Work on “E7-specific CD8 T cells from C57BL/6 mice vaccinated with E71-98 + adjuvants (PBMC, spleen, lymph no (cells without a defined receptor)” yielded an in vivo cytotoxicity assay (specific lysis of CFSE-labeled peptide-pulsed splenocytes) [3] of 80% and an ex vivo IFN-γ ELISPOT (E7-specific IFN-γ secreting cells/10^5 cells) [4] of 347.
